Source: ChEMBL document CHEMBL6096732 (J Med Chem, 2025)
pIC50: −log10 of the molar value. Activity calls are given as the source filed them. No cut-off for these calls is given here.

How the values were obtained:
Histone deacetylase 2 = Histone deacetylase 2 (Homo sapiens, UniProt Q92769); assay: Inhibition of recombinant HDAC2 (unknown origin) using Boc-Lys(acetyl)-AMC as substrate preincubated for 1 hr followed by substrate addition and measured after 2 hrs by fluorescence based micro plate reader analysis
Histone deacetylase 4 = Histone deacetylase 4 (Homo sapiens, UniProt P56524); assay: Inhibition of recombinant HDAC4 (unknown origin) using Boc-Lys(trifluoroacetyl)-AMC as substrate preincubated for 1 hr followed by substrate addition and measured after 2 hrs by fluorescence based micro plate reader analysis
Histone deacetylase 8 = Histone deacetylase 8 (Homo sapiens, UniProt Q9BY41); assay: Inhibition of recombinant HDAC8 (unknown origin) using Boc-Lys(trifluoroacetyl)-AMC as substrate preincubated for 1 hr followed by substrate addition and measured after 2 hrs by fluorescence based micro plate reader analysis
Histone deacetylase 11 = Histone deacetylase 11 (Homo sapiens, UniProt Q96DB2); assay: Inhibition of recombinant HDAC11 (unknown origin) preincubated for 1 hr followed by substrate addition and measured after 2 hrs by fluorescence based micro plate reader analysis
[1] = AUMC (0 to t) in male Sprague-Dawley rat at 20 mg/kg, po measured after 12 hrs by LC-MS/MS analysis; assay type: ADME, organism-based; settings: in vivo
HCT-116 = assay: cells; assay type: functional, cell-based; settings: Homo sapiens, HCT-116, 72 h
Description: Antiproliferative activity against human HCT-116 cells assessed as inhibition of cell growth incubated for 72 hrs by MTT assay

4T1 [2] = assay: cells; assay type: functional, cell-based; settings: Mus musculus, 4T1, 72 h
SK-OV-3 = assay: cells; assay type: functional, cell-based; settings: Homo sapiens, SK-OV-3, 72 h
Description: Antiproliferative activity against human SK-OV-3 cells assessed as inhibition of cell growth incubated for 72 hrs by MTT assay

B16-F10 [3] = assay: Induction of apoptosis in mouse B16-F10 cells assessed as increase in apoptotic cells at 10 uM incubated for 48 hrs by Annexin V-FITC/PI staining based flow cytometric analysis relative to control; assay type: functional
B16-F10 [4] = assay: Effect on acetylated H3K56 expression level in mouse B16-F10 cells at 5 to 20 uM incubated for 24 hrs by Western blot analysis; assay type: functional, cell-based; settings: dose 5-20 µM
[5] = target: Programmed cell death 1 ligand 1 (Mus musculus) (UniProt Q9EP73); assay: (§1) Induction of PD-L1 degradation in mouse B16-F10 cells assessed as decrease in PD-L1 protein level incubated for 24 hrs by Western blot analysis; assay type: cell-based
[6] = target: Programmed cell death 1 ligand 1 (Mus musculus, UniProt Q9EP73); assay: as §1; assay type: cell-based
B16-F10 [7] = assay: Upregulation of cathepsin B expression in mouse B16-F10 cells at 5 to 20 uM incubated for 24 hrs by Western blot analysis; assay type: functional, cell-based; settings: dose 5-20 µM
[8] = target: Programmed cell death 1 ligand 1 (Mus musculus) (UniProt Q9EP73); assay: Induction of PD-L1 degradation in mouse B16-F10 cells assessed as decrease in PD-L1 protein level at 2 uM measured after 24 hrs in presence of CA-074 by Western blot analysis; assay type: cell-based
4T1 [9] = assay: Downregulation of PARP1 expression in mouse 4T1 cells at 5 uM by DAPI staining based immunofluorescence analysis; assay type: functional, cell-based
[10] = MRT (0 to t) in male Sprague-Dawley rat at 2 mg/kg, iv measured after 12 hrs by LC-MS/MS analysis; assay type: ADME, organism-based; settings: in vivo
[11] = Apparent volume of distribution in male Sprague-Dawley rat at 2 mg/kg, iv measured after 12 hrs by LC-MS/MS analysis; assay type: ADME, organism-based; settings: in vivo, read-out: Vz
[12] = VRT (0 to infinity) in male Sprague-Dawley rat at 20 mg/kg, po measured after 12 hrs by LC-MS/MS analysis; assay type: ADME, organism-based; settings: in vivo
B16-F10 [13] = assay: Antitumor activity against mouse B16-F10 cells implanted in male C57BL/6 mouse model assessed as tumor growth inhibition at 50 mg/kg, po administered once daily via gavage for 14 days relative to control; assay type: functional; settings: B16-F10, 336 h, time 14 day, read-out: TGI
[14] = Toxicity in male C57BL/6 mouse implanted with mouse B16-F10 cells assessed as histopathological changes in liver at 50 mg/kg, po administered once daily for 14 days by HandE staining based microscopic analysis; assay type: organism-based; settings: in vivo, 336 h, time 14 day
[15] = Toxicity in male C57BL/6 mouse implanted with mouse B16-F10 cells assessed as histopathological changes in kidney at 50 mg/kg, po administered once daily for 14 days by HandE staining based microscopic analysis; assay type: organism-based; settings: in vivo, 336 h, time 14 day
[16] = Toxicity in male C57BL/6 mouse implanted with mouse B16-F10 cells assessed as histopathological changes in heart at 50 mg/kg, po co-administered with NP-19 as once daily dosage via gavage for 14 days by HandE staining based microscopic analysis; assay type: organism-based; settings: in vivo, 336 h, time 14 day
[17] = Toxicity in male C57BL/6 mouse implanted with mouse B16-F10 cells assessed as histopathological changes in liver at 50 mg/kg, po co-administered with NP-19 as once daily dosage via gavage for 14 days by HandE staining based microscopic analysis; assay type: organism-based; settings: in vivo, 336 h, time 14 day
[18] = Toxicity in male C57BL/6 mouse implanted with mouse B16-F10 cells assessed as histopathological changes in kidney at 50 mg/kg, po co-administered with NP-19 as once daily dosage via gavage for 14 days by HandE staining based microscopic analysis; assay type: organism-based; settings: in vivo, 336 h, time 14 day
Mus musculus [19] = assay: Immunomodulatory activity in male C57BL/6 mouse model implanted with mouse B16-F10 cells assessed as increase in CD3+ CD8+ T cells in tumor at 50 mg/kg, po co-administered with NP-19 as once daily dosage via gavage for 14 days by flow cytometric analysis (reference value: 3.2 %); assay type: functional; settings: time 14 day
Mus musculus [20] = assay: In vivo induction of PD-L1 degradation in male C57BL/6 mouse model implanted with mouse B16-F10 cells assessed as decrease in PD-L1 protein expression in tumor at 50 mg/kg, po co-administered with NP-19 as once daily dosage via gavage for 14 days by DAPI staining based immunofluorescence analysis; assay type: functional, organism-based; settings: time 14.0 day
4T1 [21] = assay: Antitumor activity against mouse 4T1 cells implanted in female BALB/c mouse model assessed as decrease in PAPR1 expression in tumor co-administrated orally with olaparib as once daily dose via gavage for 14 days by Western blot analysis; assay type: functional, cell-based; settings: route po, time 14.0 day
4T1 [22] = assay: Antitumor activity against mouse 4T1 cells implanted in female BALB/c mouse model assessed as tumor growth inhibition co-administrated orally with olaparib as once daily dose via gavage for 14 days relative to control; assay type: functional; settings: route po; time 14 day
4T1 [23] = assay: Antitumor activity against mouse 4T1 cells implanted in female BALB/c mouse model assessed as decrease in PAPR1 expression in tumor administrated orally as once daily dose via gavage for 14 days by Western blot analysis; assay type: functional, cell-based; settings: route po, time 14.0 day
4T1 [24] = assay: Antitumor activity against mouse 4T1 cells implanted in female BALB/c mouse model assessed as induction of DNA damage by measuring increase in gamma-H2AX expression in tumor co-administrated orally with olaparib as once daily dose via gavage for 14 days by Western blot analysis; assay type: functional, cell-based; settings: route po, time 14.0 day
4T1 [25] = assay: Antitumor activity against mouse 4T1 cells implanted in female BALB/c mouse model assessed as induction of DNA damage by measuring increase in gamma-H2AX expression in tumor administrated orally as once daily dose via gavage for 14 days by DAPI staining based immunofluorescence analysis; assay type: functional, cell-based; settings: route po, time 14.0 day
4T1 [26] = assay: Antitumor activity against mouse 4T1 cells implanted in female BALB/c mouse model assessed as decrease in PAPR1 expression in tumor co-administrated orally with olaparib as once daily dose via gavage for 14 days by immunohistochemistry analysis; assay type: functional, cell-based; settings: route po, time 14.0 day

Chain of Programmed cell death 1 ligand 1 (Mus musculus) (Q9EP73 whole entry): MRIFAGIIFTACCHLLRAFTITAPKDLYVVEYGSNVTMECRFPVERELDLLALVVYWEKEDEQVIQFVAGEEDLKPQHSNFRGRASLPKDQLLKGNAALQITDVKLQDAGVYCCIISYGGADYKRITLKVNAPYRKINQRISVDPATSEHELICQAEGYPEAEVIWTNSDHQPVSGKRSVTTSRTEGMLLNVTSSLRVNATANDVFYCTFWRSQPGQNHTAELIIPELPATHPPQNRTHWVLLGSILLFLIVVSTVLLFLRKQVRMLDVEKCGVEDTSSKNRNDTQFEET
Chain of Programmed cell death 1 ligand 1 (Q9EP73 whole entry): as above
Chain of Histone deacetylase 8 (Q9BY41 whole entry): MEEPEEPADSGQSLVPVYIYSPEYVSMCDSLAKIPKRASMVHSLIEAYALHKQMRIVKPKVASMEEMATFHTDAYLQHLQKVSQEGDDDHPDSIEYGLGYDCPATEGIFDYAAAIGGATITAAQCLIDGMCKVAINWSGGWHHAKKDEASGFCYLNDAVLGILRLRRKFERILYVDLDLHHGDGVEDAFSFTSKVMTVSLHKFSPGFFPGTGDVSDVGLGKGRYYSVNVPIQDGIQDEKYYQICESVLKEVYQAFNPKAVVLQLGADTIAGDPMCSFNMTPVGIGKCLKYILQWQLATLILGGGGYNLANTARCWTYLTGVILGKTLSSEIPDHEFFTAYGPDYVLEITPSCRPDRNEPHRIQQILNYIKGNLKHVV
Chain of Histone deacetylase 4 (P56524 whole entry): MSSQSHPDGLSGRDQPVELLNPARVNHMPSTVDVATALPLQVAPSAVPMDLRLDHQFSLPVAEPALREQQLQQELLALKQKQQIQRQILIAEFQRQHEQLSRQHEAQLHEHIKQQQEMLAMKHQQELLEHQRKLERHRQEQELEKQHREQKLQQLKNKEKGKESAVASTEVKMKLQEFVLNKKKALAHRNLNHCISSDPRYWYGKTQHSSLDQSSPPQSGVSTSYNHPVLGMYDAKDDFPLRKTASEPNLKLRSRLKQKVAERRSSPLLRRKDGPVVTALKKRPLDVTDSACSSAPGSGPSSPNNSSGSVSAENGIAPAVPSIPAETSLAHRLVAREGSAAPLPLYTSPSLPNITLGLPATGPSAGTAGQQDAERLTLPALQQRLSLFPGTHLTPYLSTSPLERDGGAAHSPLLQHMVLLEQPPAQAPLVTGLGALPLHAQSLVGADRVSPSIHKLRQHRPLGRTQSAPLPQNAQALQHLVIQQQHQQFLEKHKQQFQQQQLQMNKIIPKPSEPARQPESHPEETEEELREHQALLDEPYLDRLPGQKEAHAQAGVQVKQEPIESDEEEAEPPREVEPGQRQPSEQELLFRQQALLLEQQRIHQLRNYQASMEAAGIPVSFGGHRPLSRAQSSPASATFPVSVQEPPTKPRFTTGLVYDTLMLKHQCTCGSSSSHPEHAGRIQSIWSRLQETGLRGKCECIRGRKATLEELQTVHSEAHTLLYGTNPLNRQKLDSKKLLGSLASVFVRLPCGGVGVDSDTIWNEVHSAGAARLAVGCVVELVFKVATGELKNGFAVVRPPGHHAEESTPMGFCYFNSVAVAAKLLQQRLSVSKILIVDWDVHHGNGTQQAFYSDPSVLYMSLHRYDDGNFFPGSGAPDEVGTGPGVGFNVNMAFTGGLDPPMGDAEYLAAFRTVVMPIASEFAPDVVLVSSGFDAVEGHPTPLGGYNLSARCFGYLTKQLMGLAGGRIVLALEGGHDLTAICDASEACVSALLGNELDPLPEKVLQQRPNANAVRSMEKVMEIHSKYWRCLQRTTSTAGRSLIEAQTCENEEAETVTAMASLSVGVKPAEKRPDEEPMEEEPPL
Chain of Histone deacetylase 11 (Q96DB2 whole entry): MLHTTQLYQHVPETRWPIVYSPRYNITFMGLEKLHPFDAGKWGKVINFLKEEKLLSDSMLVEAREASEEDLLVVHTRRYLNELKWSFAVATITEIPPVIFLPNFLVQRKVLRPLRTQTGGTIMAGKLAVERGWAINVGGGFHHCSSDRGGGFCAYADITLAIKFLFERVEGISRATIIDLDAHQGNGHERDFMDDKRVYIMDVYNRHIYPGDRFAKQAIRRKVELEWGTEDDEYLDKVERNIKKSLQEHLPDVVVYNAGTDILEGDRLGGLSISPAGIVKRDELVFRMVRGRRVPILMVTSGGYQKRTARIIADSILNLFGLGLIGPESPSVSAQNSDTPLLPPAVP
Chain of Histone deacetylase 2 (Q92769 whole entry): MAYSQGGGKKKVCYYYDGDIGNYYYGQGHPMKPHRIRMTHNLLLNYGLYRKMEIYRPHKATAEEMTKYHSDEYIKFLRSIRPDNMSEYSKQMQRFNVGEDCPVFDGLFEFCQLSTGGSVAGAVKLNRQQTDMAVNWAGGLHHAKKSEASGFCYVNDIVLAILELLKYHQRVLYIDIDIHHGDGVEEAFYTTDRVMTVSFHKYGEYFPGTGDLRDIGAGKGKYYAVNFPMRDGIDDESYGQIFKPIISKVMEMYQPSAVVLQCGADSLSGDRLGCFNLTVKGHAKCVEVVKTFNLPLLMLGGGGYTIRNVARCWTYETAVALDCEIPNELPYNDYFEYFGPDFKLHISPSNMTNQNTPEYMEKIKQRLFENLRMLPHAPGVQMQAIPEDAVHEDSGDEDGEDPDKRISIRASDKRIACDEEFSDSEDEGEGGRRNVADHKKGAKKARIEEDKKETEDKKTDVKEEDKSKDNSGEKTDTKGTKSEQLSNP

## CCCNNC(=O)c1ccc(Cn2c3ccccc3c3c(-c4ccccn4)nc4ccccc4c32)cc1
Histone deacetylase 2
  pIC50: 5.01
Histone deacetylase 4
  pIC50: < 5.00
Histone deacetylase 8
  pIC50: < 5.00
Histone deacetylase 11
  pIC50: 5.05
[1]
  AUMCt: 34704.993 hr.hr.ug/L
HCT-116
  pIC50: 5.17
4T1 [2]
  pIC50: 5.08
SK-OV-3
  pIC50: 4.89
B16-F10 [3]
  Activity: 44.7%
B16-F10 [4]
  Activity: inactive
[5]
  Activity: Dose-dependent-effect
[6]
  DC50: 4.03 µM
B16-F10 [7]
  Activity: Active
[8]
  Activity: Not active; Ctsb-Mediated Lysosomal Degradation Mechanism Is Observed
4T1 [9]
  Activity: Active
[10]
  MRT last at 12 h: 44.3 min
[11]
  Vd: 2.17 L/kg
[12]
  VRT: 12.987 hr2
B16-F10 [13]
  inhibition in vivo at 50 mg/kg: 67%
[14]
  Activity: Non-toxic
[15]
  Activity: Non-toxic
[16]
  Activity: Non-toxic
[17]
  Activity: Non-toxic
[18]
  Activity: Non-toxic
Mus musculus [19]
  Activity: 32%
Mus musculus [20]
  Activity: Active
4T1 [21]
  Activity: Active
4T1 [22]
  TGI: 91%
4T1 [23]
  Activity: Active
4T1 [24]
  Activity: Active
4T1 [25]
  Activity: Active; Comparable To The Effect Of Olaparib
4T1 [26]
  Activity: Active
